In patent US20090247542A1, “SYNTHESES AND PREPARATIONS OF POLYMORPHS OF CRYSTALLINE ARIPIPRAZOLE” (MEDICHEM, S.A., priority 2005, published 2009):

Assay: Hygroscopicity measurements (water content by Karl Fisher after humid storage)
Type: physicochemical
Details: for Hygroscopicity: water content (Karl Fisher) after 24 hours at 60° C./100% RH, then 24 hours at room temperature and about 30% RH
Procedure: vii. Hygroscopicity Measurements
One gram of the sample was accurately weighed in a weighing bottle (diameter 5 cm), covered with kimwipes and left to rest in 60° C./100% RH environment (water/dessicator). 24 hours later, the weighing bottle was removed, transferred to an environment of room temperature and about 30% RH (magnesium chloride hexahydrate saturated water solution/dessicator) and left to rest for 24 hours and the water content of the sample was measured by the Karl Fisher method.

Row | Structure (SMILES) | low hygroscopicity (moisture content) (after storing anhydrous aripiprazole Form J for 24 hours at 60° C. and a humidity level of 100%) | Hygroscopicity
1 | O=C1CCc2ccc(OCCCCN3CCN(c4cccc(Cl)c4Cl)CC3)cc2N1 [aripiprazole Form J, 7-{4-[4-(2,3-dichlorophenyl)-1-piperazinyl]-butoxy}-3,4-dihydrocarbostyril] | ≤ 0.5% | 
2 | O=C1CCc2ccc(OCCCCN3CCN(c4cccc(Cl)c4Cl)CC3)cc2N1 [Example 1, 7-{4-[4-(2,3-dichlorophenyl)-1-piperazinyl]-butoxy}-3,4-dihydrocarbostyril] |  | 0.06%
3 | O=C1CCc2ccc(OCCCCN3CCN(c4cccc(Cl)c4Cl)CC3)cc2N1 [Reference Example 2, 7-{4-[4-(2,3-dichlorophenyl)-1-piperazinyl]-butoxy}-3,4-dihydrocarbostyril, reference compound] |  | 0.35%
